The numbers were not newly measured in patent publication US6601275B2, “Method and composition for embalming” (United Biotechnologies, L.L.C., priority 2000, dated 2003), which cites them from elsewhere.

As for `C=O` [formaldehyde], for the setting “airborne”, the “airborne concentration causing irritation of the eyes nose and throat” value is reported as “above 0.1 ppm”; the “airborne concentration immediately dangerous to life and health” value is reported as 100 ppm. In addition, for the setting “human”, the carcinogenicity result is “potential human carcinogen”.
